Results published in paper PMC10391610, “Survivin prevents the polycomb repressor complex 2 from methylating histone 3 lysine 27” (iScience, 2023).

How the values were obtained:
[1] = target: T1, survivin (Homo sapiens, UniProt O15392); experiment: PEPperCHIP peptide microarray, survivin interaction; format: binding; settings: 1 μg/mL survivin
T1 construct: transferred to the survivin1-142 construct used in the present study; His8 tag (pHIS8 vector, thrombin-cleavable); made in house; host or cells: E. coli BL21(DE3) star
Excerpt: We were looking for potential direct interactions between survivin and short peptide sequences originating from PRC2 subunits and other proteins involved in histone modifications based on the in vivo results. Therefore, we created a peptide microarray of overlapping peptides obtained from EZH2, EED, SUZ12, and JARID2 to investigate how survivin interacts with the activity of the PRC2 complex. These subunits form the core of PRC2, and the interaction of survivin with the PRC2 molecular scaffold indicates a potentially disruptive role for survivin in PRC2 function. The fluorescence signal generated by labeled survivin is compared in Figure 2 as a function of position along the polypeptide chain of PRC2 subunits. Figure S1 depicts the raw fluorescence images. Moreover, the microarray fluorescence intensities projected on the three-dimensional structure of the PRC2 core complex are shown in Figure 3. The whole dataset is deposited at the Zenodo data base.
The location of survivin on the peptide microarray was clearly correlated with the amino acid content of the peptide at 1 μg/mL survivin concentration. When evaluating how accurate the predictions were, one should keep in mind that the primary and higher-order structures of the peptide were not at all considered in this analysis. Mislabeling peptides is possible for multiple reasons. The smallest fluorescence signal was chosen as the limit of detection and photon-counting errors may cause weak interactions to be undetected at low fluorescence intensities. Moreover, if the fluorescence intensity of experimental duplicates varied by more than 40%, a peptide was classified as non-interacting even if the lack of reproducibility is ambiguous evidence for the lack of interaction. […] Reducing the number of hidden layer perceptrons from 100 (the default value) to 9 had no effect on the classifier’s performance. Even a 15 amino acid peptide segment composition gives a high degree of uniqueness and highly scalable intensity for survivin-peptide interaction. Survivin has a non-globular structure with no deep binding pockets.
A peptide microarray was designed using the protein sequences from: Cdk1 (P06493), KAT2A/GCN5 (Q92830), SPI1/PU1 (P17947), SUZ12 (Q15022), EED (O75530), JADE3 (Q92613), DIABLO/SMAC (Q9NR28), BOREALIN (Q53HL2), INCENP (Q9NQS7), SGOL1 (Q5FBB7), SGOL2 (Q562F6), EZH2 (Q15910), JARID2 (Q92833), Histone H3 (P68431), AURORAKB (Q96GD4), JADE1 (Q6IE81), JTB (O76095), EVI5 (O60447), RAN (P62826), USP9X (Q93008), C-IAP1 (Q13490), STAT3 (P40763), BRUCE/APOLLON (Q9NR09), XPO1 (O14980), CDX2 (Q99626), Msx2 (P35548), RBM15 (Q96T37), PHF21A (Q96BD5), PHF8 (Q9UPP1), DIDO (Q9BTC0), JADE2 (Q9NQC1) and HASPIN (Q8TF76). The Uniprot ID is shown in parenthesis. The protein sequences were divided into 15 amino acid long peptides with a 10 amino acid overlap. To investigate background interactions with the protein-derived peptides that could interfere with the main assays, one of the PEPperCHIP Peptide Microarrays (PEPperPRINT Gmbh) was pre-staining with the secondary 6x His Tag Antibody DyLight680 antibody at a dilution of 1:1000 and with the monoclonal anti-HA (12CA5)-DyLight800 control antibody at a dilution of 1:1000. Subsequent incubation of other peptide microarray copies with survivin at a concentration of 1 μg/ml in incubation buffer was followed by staining with the secondary 6x His Tag Antibody DyLight680 antibody (Rockland Immunochemicals, Pottstown, PA, USA) and the monoclonal anti-HA (12CA5)-DyLight800 control antibody (Rockland Immunochemicals, Pottstown, PA, USA). The read-out was performed by scanning intensities of 7/7 (red/green). As an internal quality control, HA and His tag control peptides were stained simultaneously to confirm assay quality and to facilitate grid alignment for data quantification. The LI-COR Odyssey Imaging System was used for read-out, and the PepSlide Analyzer was used for quantification of spot intensities and peptide annotation. […]

[2] = target: T1, survivin; experiment: Biolayer interferometry (reverse), immobilized survivin, EZH2 peptide as analyte; format: binding; settings: peptide 21.2 µM
Protocol: Other phases in the reverse experiment follow the same parameters as in non-reverse experiments mentioned above.
Δλ(t) values were converted to dimensionless quantities by dividing the wavelength shifts with 1 nm prior to the analysis. To develop the model, we tentatively assumed Langmuir’s 1:1 model.[85] The kinetic modelling was performed with the pymc3 python package[66] using a Bayesian model: p(KD,app|lower=10^−15,upper=10^−3)=1/upper−lower p(k−1|lower=10^−20,upper=10)=1/upper−lower k1=k−1/KD,app p(A|lower=10^−6,upper=10)=1/upper−lower p(ε|lower=10^−6,upper=1)=1/upper−lower p(Δλ(0)|μ=⟨Δλi⟩,σ=1/10∑(Δλi−⟨Δλi⟩)^2/n)=1/2πσe^−1/2σ(Δλ(t)−μ)^2;Δλ(0)∈[10^−20,+∞]
The association and dissociation phases were modelled simultaneously, and the probability of wavelength shift during association phase was modeled as: p(Δλ(t)|μ=Ac/KD,app+c(1−e^−(k1c+k−1)t),σ=ε)=1/2πσe^−1/2σ(Δλ(t)−μ)^2
The probability of wavelength shift during the dissociation phase was modelled as: p(Δλ(t)|μ=Δλ(0)e^−k−1t,σ=ε)=1/2πσe^−1/2σ(Δλ(t)−μ)^2, where A and k1 are the amplitude and rate constant of the exponential association process, respectively. The concentration of the analyte is c and KD,app is the apparent dissociation constant. The dissociation rate constant is marked with k-1. ε represents the standard deviation of Δλ(t) . […]

T1 sequence (O15392 whole entry): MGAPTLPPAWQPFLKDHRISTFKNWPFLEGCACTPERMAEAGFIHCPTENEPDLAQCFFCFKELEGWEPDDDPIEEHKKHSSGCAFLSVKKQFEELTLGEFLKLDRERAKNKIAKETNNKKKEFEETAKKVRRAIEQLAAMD

How did the “Average FI (%)” value ([1]; anti-His tag DyLight680 read-out, percentage of maximum fluorescence intensity units (64193) per peptide, 15-mer microarray peptides covering the residues) turn out when “VELVNALGQYNDDDDDDDGD DPEEREEKQKDLEDHRDDKE [EZH2_172-211, PRC2-derived peptide, EZH2 residues 172–211, synthesized by Biomatik]” was run?
Its value is 71%.

What about the “Integrated FI” value ([1]; in units of the maximum FI per peptide, 15-mer microarray peptides covering the residues) of the same sequence?
The value was 4.28.

And the “survivin interaction / fluorescence on microarray (in words)” value ([1]; peptide microarray)?
Its value is “high survivin-associated fluorescence intensity”.

And the “k1 (association rate constant)” value ([2]; posterior mean ± SD)?
Its value is 45 ± 0.59 M⁻¹ s⁻¹.

What about the “A (amplitude of association)” value ([2]; posterior mean, SD 1.2×10-3) of the same sequence?
The value was 0.13 nm.
